Measurements reported in patent US11634447B2 (priority 2012, dated 2023).

Test system: bacterial strain LF82 binding to the glycoprotein BSA-(Mannose)3
Test: Bacterial Binding Assay (BBA)
Type: cell-based, Escherichia coli
Settings: read-out: Bacterial Binding Assay IC50, LF82/Luciferase strain binding to BSA-(Man)3 coated plates, luminescence
How it was run: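 Inhibition of LF82/luciferase E. coli adhesion is read as luminescence after washing off unbound cells. Compound and bacteria (10^7 per well) are co-incubated 40-75 min at room temperature on wells coated with 0.5-2 μg/mL BSA-(Man)3, with BSA-only wells as background; IC50 values derived.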

| SMILES | IC50 |
| --- | --- |
| CCCC1(O)c2cc(C#C[C@H]3O[C@H](CO)[C@@H](O)[C@H](O)[C@@H]3O)ccc2-c2ccc(C#C[C@H]3O[C@H](CO)[C@@H](O)[C@H](O)[C@@H]3O)cc21 [Compound 168, (2R,3S,4R,5S,6R)-2-(hydroxymethyl)-6-[2-[9-hydroxy-9-propyl-7-[2-[(2R,3S,4R,5S,6R)-3,4,5-trihydroxy-6-(hydroxymethyl)tetrahydropyran-2-yl]ethynyl]fluoren-2-yl]ethynyl]tetrahydropyran-3,4,5-triol] | 3.1 nM |
| CCCCc1cc(C#C[C@H]2O[C@H](CO)[C@@H](O)[C@H](O)[C@@H]2O)ccc1C#C[C@H]1O[C@H](CO)[C@@H](O)[C@H](O)[C@@H]1O [Compound 72] | 18 nM |
| CN1CCC(Cn2c3cc(C#C[C@H]4O[C@H](CO)[C@@H](O)[C@H](O)[C@@H]4O)ccc3c3ccc(C#C[C@H]4O[C@H](CO)[C@@H](O)[C@H](O)[C@@H]4O)cc32)CC1 [Compound 188, (2R,3S,4R,5S,6R)-2-(hydroxymethyl)-6-[2-[9-[(1-methyl-4-piperidyl)methyl]-7-[2-[(2R,3S,4R,5S,6R)-3,4,5-trihydroxy-6-(hydroxymethyl)tetrahydropyran-2-yl]ethynyl]carbazol-2-yl]ethynyl]tetrahydropyran-3,4,5-triol] | 4.3 nM |
| CC1(O)c2cc(C#C[C@H]3O[C@H](CO)[C@@H](O)[C@H](O)[C@@H]3O)ccc2-c2ccc(C#C[C@H]3O[C@H](CO)[C@@H](O)[C@H](O)[C@@H]3O)cc21 [Compound 115, (2R,3S,4R,5S,6R)-2-(hydroxymethyl)-6-[2-[9-hydroxy-9-methyl-7-[2-[(2R,3S,4R,5S,6R)-3,4,5-trihydroxy-6-(hydroxymethyl)tetrahydropyran-2-yl]ethynyl]fluoren-2-yl]ethynyl]tetrahydropyran-3,4,5-triol] | 3.9 nM |
| Cc1cc(C#C[C@H]2O[C@H](CO)[C@@H](O)[C@H](O)[C@@H]2O)ccc1C#C[C@H]1O[C@H](CO)[C@@H](O)[C@H](O)[C@@H]1O [Compound 104, (2R,3S,4R,5S,6R)-2-(hydroxymethyl)-6-[2-[3-methyl-4-[2-[(2R,3S,4R,5S,6R)-3,4,5-trihydroxy-6-(hydroxymethyl)tetrahydropyran-2-yl]ethynyl]phenyl]ethynyl]tetrahydropyran-3,4,5-triol] | 34 nM |
| OC[C@H]1O[C@H](C#Cc2cccc3cccc(C#C[C@H]4O[C@H](CO)[C@@H](O)[C@H](O)[C@@H]4O)c23)[C@@H](O)[C@@H](O)[C@@H]1O [Compound 137, (2R,3S,4R,5S,6R)-2-(hydroxymethyl)-6-[2-[8-[2-[(2R,3S,4R,5S,6R)-3,4,5-trihydroxy-6-(hydroxymethyl)tetrahydropyran-2-yl]ethynyl]-1-naphthyl]ethynyl]tetrahydropyran-3,4,5-triol] | 700 nM |
| O=C1c2cc(C#C[C@H]3O[C@H](CO)[C@@H](O)[C@H](O)[C@@H]3O)ccc2-c2ccc(C#C[C@H]3O[C@H](CO)[C@@H](O)[C@H](O)[C@@H]3O)cc21 [Compound 119, 2,7-bis[2-[(2R,3S,4R,5S,6R)-3,4,5-trihydroxy-6-(hydroxymethyl)tetrahydropyran-2-yl]ethynyl]fluoren-9-one] | 14 nM |
| Cc1c(C#C[C@H]2O[C@H](CO)[C@@H](O)[C@H](O)[C@@H]2O)ccc(C#C[C@H]2O[C@H](CO)[C@@H](O)[C@H](O)[C@@H]2O)c1C [Compound 99, (2R,3S,4R,5S,6R)-2-[2-[2,3-dimethy1-4-[2-[(2R,3S,4R,5S,6R)-3,4,5-trihydroxy-6-(hydroxymethyl)tetrahydropyran-2-yl]ethynyl]phenyl]ethynyl]-6-(hydroxymethyl)tetrahydropyran-3,4,5-triol] | 145 nM |
| CC(C)(C#N)c1cc(C#C[C@H]2O[C@H](CO)[C@@H](O)[C@H](O)[C@@H]2O)ccc1C#C[C@H]1O[C@H](CO)[C@@H](O)[C@H](O)[C@@H]1O [Compound 70] | 15 nM |
| CCOC(=O)c1c(C#C[C@H]2O[C@H](CO)[C@@H](O)[C@H](O)[C@@H]2O)ccc2c1C1(CCNCC1)c1cc(C#C[C@H]3O[C@H](CO)[C@@H](O)[C@H](O)[C@@H]3O)ccc1-2 [Compound 209, ethyl 2,7-bis[2-[(2R,3S,4R,5S,6R)-3,4,5-trihydroxy-6-(hydroxymethyl)tetrahydropyran-2-yl]ethynyl]spiro[fluorene-9,4 piperidine]-1 carboxylate] | 0.07 nM |
| Cc1c(C#C[C@H]2O[C@H](CO)[C@@H](O)[C@H](O)[C@@H]2O)cccc1[C@H]1O[C@H](CO)[C@@H](O)[C@H](O)[C@@H]1O [Compound 148] | 130 nM |
| OC[C@H]1O[C@H](C#Cc2ccc(C#C[C@H]3O[C@H](CO)[C@@H](O)[C@H](O)C3O)cc2)[C@@H](O)[C@@H](O)[C@@H]1O (stereo in doubt) [Compound 69, (2R,3 S,4R,5R,6R)-2-(hydroxymethyl)-6-[2-[4-[2-[(2R,3 S,4R,5 S,6R)-3,4,5-trihydroxy-6-(hydroxymethyl)tetrahydropyran-2-yl]ethynyl]phenyl]ethynyl]tetrahydropyran-3,4,5-triol] | 66 nM |
| O=C(c1c(C#C[C@H]2O[C@H](CO)[C@@H](O)[C@H](O)[C@@H]2O)ccc2c1C1(CCNCC1)c1cc(C#C[C@H]3O[C@H](CO)[C@@H](O)[C@H](O)[C@@H]3O)ccc1-2)C1CCC1 [Compound 226, [2,7-bis[2-[(2R,3S,4R,5S,6R)-3,4,5-trihydroxy-6-(hydroxymethyl)tetrahydropyran-2-yl]ethynyl]spiro[fluorene-9,4piperidine]-1yl]-cyclobutyl-methanone] | 0.06 nM |
| O=C(c1c(C#C[C@H]2O[C@H](CO)[C@@H](O)[C@H](O)[C@@H]2O)ccc2c1C1(CCNCC1)c1cc(C#C[C@H]3O[C@H](CO)[C@@H](O)[C@H](O)[C@@H]3O)ccc1-2)C1(O)CC1 [Compound 227, [2,7-bis[2-[(2R,3S,4R,5S,6R)-3,4,5-trihydroxy-6-(hydroxymethyl)tetrahydropyran-2-yl]ethynyl]spiro[fluorene-9,4piperidine]-1yl]-(1hydroxycyclopropyl)methanone] | 0.06 nM |
| OC[C@H]1O[C@H](c2cc3ccc(C#C[C@H]4O[C@H](CO)[C@@H](O)[C@H](O)[C@@H]4O)cc3[nH]2)[C@@H](O)[C@@H](O)[C@@H]1O [Compound 146, (2R,3 S,4R,5S,6R)-2-(hydroxymethyl)-6-[2-[2-[(2R,3 S,4R,5S,6R)-3,4,5-trihydroxy-6-(hydroxymethyl)tetrahydropyran-2-yl]-1H-indol-6-yl]ethynyl]tetrahydropyran-3,4,5-triol] | 165 nM |
| COc1cc([C@H]2O[C@H](CO)[C@@H](O)[C@H](O)[C@@H]2O)ccc1-c1ccc([C@H]2O[C@H](CO)[C@@H](O)[C@H](O)[C@@H]2O)c(C)c1 [Compound 147] | 134 nM |
| Cc1cc(-c2ccc(-c3ccc([C@H]4O[C@H](CO)[C@@H](O)[C@H](O)[C@@H]4O)c(C)c3)c(C)n2)ccc1[C@H]1O[C@H](CO)[C@@H](O)[C@H](O)[C@@H]1O [Compound 155, (2R,3S,4R,5S,6R)-2-(hydroxymethyl)-6-[2-methyl-4-[2-methyl-6-[3-methyl-4-[(2R,3S,4R,5S,6R)-3,4,5-trihydroxy-6-(hydroxymethyl)tetrahydropyran-2-yl]phenyl]-3-pyridyl]phenyl]tetrahydropyran-3,4,5-triol] | 22 nM |
| OC[C@H]1O[C@H](C#Cc2ccc3c(c2)C(F)(F)c2cc(C#C[C@H]4O[C@H](CO)[C@@H](O)[C@H](O)[C@@H]4O)ccc2-3)[C@@H](O)[C@@H](O)[C@@H]1O [Compound 116, (2R,3S,4R,5S,6R)-2-[2-[9,9-difluoro-7-[2-[(2R,3S,4R,5S,6R)-3,4,5-trihydroxy-6-(hydroxymethyl)tetrahydropyran-2-yl]ethynyl]fluoren-2-yl]ethynyl]-6-(hydroxymethyl)tetrahydropyran-3,4,5-triol] | 8.1 nM |
| OC[C@H]1O[C@H](C#Cc2ccc(C#C[C@H]3O[C@H](CO)[C@@H](O)[C@H](O)[C@@H]3O)c(OC(F)(F)F)c2)[C@@H](O)[C@@H](O)[C@@H]1O [Compound 87, (2R,3S,4R,5S,6R)-2-(hydroxymethyl)-6-[2-[3-(trifluoromethoxy)-4-[2-[(2R,3S,4R,5S,6R)-3,4,5-trihydroxy-6-(hydroxymethyl)tetrahydropyran-2-yl]ethynyl]phenyl]ethynyl]tetrahydropyran-3,4,5-triol] | 17 nM |
| Cc1cc(C2CC2c2ccc([C@H]3O[C@H](CO)[C@@H](O)[C@H](O)[C@@H]3O)c(C)c2)ccc1[C@H]1O[C@H](CO)[C@@H](O)[C@H](O)[C@@H]1O (stereo partly drawn) [Compound 160, (2R,3S,4R,5S,6R)-2-(hydroxymethyl)-6-[2-methyl-4-[2-[3-methyl-4-[(2R,3S,4R,5S,6R)-3,4,5-trihydroxy-6-(hydroxymethyl)tetrahydropyran-2-yl]phenyl]cyclopropyl]phenyl]tetrahydropyran-3,4,5-triol] | 17 nM |
| COc1cccc(C2(O)c3cc(C#C[C@H]4O[C@H](CO)[C@@H](O)[C@H](O)[C@@H]4O)ccc3-c3ccc(C#C[C@H]4O[C@H](CO)[C@@H](O)[C@H](O)[C@@H]4O)cc32)c1 [Compound 170, (2R,3S,4R,5S,6R)-2-[2-[9-hydroxy-9-(3-methoxyphenyl)-7-[2-[(2R,3S,4R,5S,6R)-3,4,5-trihydroxy-6-(hydroxymethyl)tetrahydropyran-2-yl]ethynyl]fluoren-2-yl]ethynyl]-6-(hydroxymethyl)tetrahydropyran-3,4,5-triol] | 7.5 nM |
| CCc1cc(C#C[C@H]2O[C@H](CO)[C@@H](O)[C@H](O)[C@@H]2O)cc(CC)c1C#C[C@H]1O[C@H](CO)[C@@H](O)[C@H](O)[C@@H]1O [Compound 73] | 21 nM |
| CCOC(=O)Cn1c2cc(C#C[C@H]3O[C@H](CO)[C@@H](O)[C@H](O)[C@@H]3O)ccc2c2ccc(C#C[C@H]3O[C@H](CO)[C@@H](O)[C@H](O)[C@@H]3O)cc21 [Compound 175, ethyl 2-[2,7-bis[2-[(2R,3S,4R,5S,6R)-3,4,5-trihydroxy-6-(hydroxymethyl)tetrahydropyran-2-yl]ethynyl]carbazol-9-yl]acetate] | 6.5 nM |
